Test results reported in US20260022142A1, “MACROCYCLIC IMMUNOMODULATORS” (Bristol-Myers Squibb Company, priority 2022, published 2026).
Bridge positions count the residues as written; N and C are the ends. Square brackets hold non-standard residues; d marks the D form. Peptide text beside a SMILES is read from it. * marks the point of attachment. ξ: configuration not given here. Bip = N[C@@H](Cc1ccc(-c2ccccc2)cc1)C(=O)O; Phe(3-Me) = Cc1cccc(C[C@H](N)C(=O)O)c1; Cha = N[C@@H](CC1CCCCC1)C(=O)O; Cit = NC(=O)NCCC[C@H](N)C(=O)O; Thr(3ξ) = CC(O)[C@H](N)C(=O)O; Carboxymethyl = O=C(O)C*; Orn = NCCC[C@H](N)C(=O)O; Aun = NCCCCCCCCCCC(=O)O; Dab = NCC[C@H](N)C(=O)O; Dap = NC[C@H](N)C(=O)O; AEEA = NCCOCCOCC(=O)O

Target: T1, PD-1/PD-L1 interaction (PE-labeled human PD-L1-Ig binding to Jurkat cell line over-expressing human PD-1) (Homo sapiens, UniProt Q15116)
T1 construct: expressed in transfected cells; host or cells: Jurkat
T1 sequence (Q15116 25-288): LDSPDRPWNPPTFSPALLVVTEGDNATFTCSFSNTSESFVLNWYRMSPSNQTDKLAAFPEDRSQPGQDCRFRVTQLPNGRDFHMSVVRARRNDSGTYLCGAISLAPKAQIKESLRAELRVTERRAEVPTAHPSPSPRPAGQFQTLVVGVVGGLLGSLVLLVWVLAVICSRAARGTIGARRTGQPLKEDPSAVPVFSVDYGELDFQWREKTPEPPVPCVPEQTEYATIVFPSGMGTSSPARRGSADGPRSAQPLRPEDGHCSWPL
Test: Jurkat-PD-1 Cell Binding High-Content Screening Assay (CBA)
Assay type: cell-based
Conditions: Jurkat cell line over-expressing human PD-1; PE-labeled PD-L1-Ig 20 nM final; read-out: Jurkat hPD1-PDL1 IC50
Outline: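 Read-out is high-content imaging of cell-bound phycoerythrin-tagged PD-L1-Ig on fixed, Hoechst-counterstained Jurkat cells that over-express human PD-1. Compound exposure lasts 2 h at 37° C before the labeled ligand (20 nM final) is added for a further hour.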

IC50	SMILES
0.0053 µM	Cc1cccc(C[C@@H]2NC(=O)[C@H](CC(=O)O)NC(=O)[C@H](Cc3ccc(OCC(=O)O)cc3)NC(=O)[C@H](CN)NC(=O)CSC[C@@H](C(=O)NCCOCCOCC(=O)NCCCCCCCCCCC(=O)O)NC(=O)[C@H](CCCN)NC(=O)[C@H](C(C)C)NC(=O)[C@H](CC3CCCCC3)NC(=O)[C@H](CCN)NC(=O)[C@@H](CC(C)C)NC(=O)[C@H](CCCN)NC(=O)[C@H](C(C)C)NC(=O)[C@H](Cc3ccc(-c4ccccc4)cc3)NC(=O)[C@H](C(C)C)NC2=O)c1 [Compound 2567] ({CH2CO}-[Dap]Y(Carboxymethyl)D[Phe(3-Me)]V[Bip]V[Orn][dL][Dab][Cha]V[Orn]C[AEEA][Aun]-OH; thioether N-14)
0.0127 µM	Cc1cccc(C[C@@H]2NC(=O)[C@H](CC(=O)O)NC(=O)[C@H](Cc3ccc(OCC(=O)O)cc3)NC(=O)[C@H](CN)NC(=O)CSC[C@@H](C(=O)NCCOCCOCC(=O)NCCCCCCCCCCC(=O)O)NC(=O)[C@H](CCCNC(=N)N)NC(=O)[C@H](C(C)C)NC(=O)[C@H](CC3CCCCC3)NC(=O)[C@H](CCN)NC(=O)[C@@H](CC(C)C)NC(=O)[C@H](CCCN)NC(=O)[C@H](C(C)C)NC(=O)[C@H](Cc3ccc(-c4ccccc4)cc3)NC(=O)[C@H](C(C)C)NC2=O)c1 [Compound 2568] ({CH2CO}-[Dap]Y(Carboxymethyl)D[Phe(3-Me)]V[Bip]V[Orn][dL][Dab][Cha]VRC[AEEA][Aun]-OH; thioether N-14)
0.0802 µM	Cc1cccc(C[C@@H]2NC(=O)[C@H](CC(=O)O)NC(=O)[C@H](Cc3ccc(OCC(=O)O)cc3)NC(=O)[C@H](CN)NC(=O)CSC[C@@H](C(=O)N[C@@H](CCN)C(=O)NCCOCCOCC(=O)NCCCCCCCCCCC(=O)O)NC(=O)[C@H](C(C)O)NC(=O)[C@H](Cc3ccc(O)cc3)NC(=O)[C@H](CC3CCCCC3)NC(=O)[C@H](CCN)NC(=O)[C@@H](CC(C)C)NC(=O)[C@H](CCCN)NC(=O)[C@H](Cc3ccc(O)cc3)NC(=O)[C@H](Cc3ccc(-c4ccccc4)cc3)NC(=O)[C@H](Cc3ccc(O)cc3)NC2=O)c1 (stereo partly drawn) [Compound 2569] ({CH2CO}-[Dap]Y(Carboxymethyl)D[Phe(3-Me)]Y[Bip]Y[Orn][dL][Dab][Cha]Y[Thr(3ξ)]C[Dab][AEEA][Aun]-OH; thioether N-14)
0.0319 µM	Cc1cccc(C[C@@H]2NC(=O)[C@H](CC(=O)O)NC(=O)[C@H](Cc3ccc(OCC(=O)O)cc3)NC(=O)[C@H](CN)NC(=O)CSC[C@@H](C(=O)N[C@@H](CCN)C(=O)NCCOCCOCC(=O)NCCCCCCCCCCC(=O)O)NC(=O)[C@H](CO)NC(=O)[C@H](Cc3ccc(O)cc3)NC(=O)[C@H](CC3CCCCC3)NC(=O)[C@H](CCN)NC(=O)[C@@H](CC(C)C)NC(=O)[C@H](CCCN)NC(=O)[C@H](Cc3ccc(O)cc3)NC(=O)[C@H](Cc3ccc(-c4ccccc4)cc3)NC(=O)[C@H](Cc3ccc(O)cc3)NC2=O)c1 [Compound 2570] ({CH2CO}-[Dap]Y(Carboxymethyl)D[Phe(3-Me)]Y[Bip]Y[Orn][dL][Dab][Cha]YSC[Dab][AEEA][Aun]-OH; thioether N-14)
0.013 µM	Cc1cccc(C[C@@H]2NC(=O)[C@H](CC(=O)O)NC(=O)[C@H](Cc3ccc(OCC(=O)O)cc3)NC(=O)[C@H](CN)NC(=O)CSC[C@@H](C(=O)N[C@@H](CCN)C(=O)NCCOCCOCC(=O)NCCCCCCCCCCC(=O)O)NC(=O)[C@H](C(C)O)NC(=O)[C@H](Cc3ccc(O)cc3)NC(=O)[C@H](CC3CCCCC3)NC(=O)[C@H](CCN)NC(=O)[C@@H](CC(C)C)NC(=O)[C@H](CCCN)NC(=O)[C@H](CCCNC(N)=O)NC(=O)[C@H](Cc3ccc(-c4ccccc4)cc3)NC(=O)[C@H](Cc3ccc(O)cc3)NC2=O)c1 (stereo partly drawn) [Compound 2571] ({CH2CO}-[Dap]Y(Carboxymethyl)D[Phe(3-Me)]Y[Bip][Cit][Orn][dL][Dab][Cha]Y[Thr(3ξ)]C[Dab][AEEA][Aun]-OH; thioether N-14)
0.0216 µM	Cc1cccc(C[C@@H]2NC(=O)[C@H](CC(=O)O)NC(=O)[C@H](Cc3ccc(OCC(=O)O)cc3)NC(=O)[C@H](CN)NC(=O)CSC[C@@H](C(=O)N[C@@H](CCN)C(=O)NCCOCCOCC(=O)NCCCCCCCCCCC(=O)O)NC(=O)[C@H](CCCN)NC(=O)[C@H](Cc3ccc(O)cc3)NC(=O)[C@H](CC3CCCCC3)NC(=O)[C@H](CCN)NC(=O)[C@@H](CC(C)C)NC(=O)[C@H](CCCN)NC(=O)[C@H](CCCNC(N)=O)NC(=O)[C@H](Cc3ccc(-c4ccccc4)cc3)NC(=O)[C@H](Cc3ccc(O)cc3)NC2=O)c1 [Compound 2572] ({CH2CO}-[Dap]Y(Carboxymethyl)D[Phe(3-Me)]Y[Bip][Cit][Orn][dL][Dab][Cha]Y[Orn]C[Dab][AEEA][Aun]-OH; thioether N-14)
0.0476 µM	Cc1cccc(C[C@@H]2NC(=O)[C@H](CC(=O)O)NC(=O)[C@H](Cc3ccc(OCC(=O)O)cc3)NC(=O)[C@H](CN)NC(=O)CSC[C@@H](C(=O)N[C@@H](CCN)C(=O)NCCOCCOCC(=O)NCCCCCCCCCCC(=O)O)NC(=O)[C@H](C(C)O)NC(=O)[C@H](Cc3ccc(O)cc3)NC(=O)[C@H](CC3CCCCC3)NC(=O)[C@H](CCN)NC(=O)[C@@H](CC(C)C)NC(=O)[C@H](CCCN)NC(=O)[C@H](C(C)C)NC(=O)[C@H](Cc3ccc(-c4ccccc4)cc3)NC(=O)[C@H](Cc3ccc(O)cc3)NC2=O)c1 (stereo partly drawn) [Compound 2573] ({CH2CO}-[Dap]Y(Carboxymethyl)D[Phe(3-Me)]Y[Bip]V[Orn][dL][Dab][Cha]Y[Thr(3ξ)]C[Dab][AEEA][Aun]-OH; thioether N-14)
0.0283 µM	Cc1cccc(C[C@@H]2NC(=O)[C@H](CC(=O)O)NC(=O)[C@H](Cc3ccc(OCC(=O)O)cc3)NC(=O)[C@H](CN)NC(=O)CSC[C@@H](C(=O)N[C@@H](CCN)C(=O)NCCOCCOCC(=O)NCCCCCCCCCCC(=O)O)NC(=O)[C@H](CCCN)NC(=O)[C@H](Cc3ccc(O)cc3)NC(=O)[C@H](CC3CCCCC3)NC(=O)[C@H](CCN)NC(=O)[C@@H](CC(C)C)NC(=O)[C@H](CCCN)NC(=O)[C@H](C(C)C)NC(=O)[C@H](Cc3ccc(-c4ccccc4)cc3)NC(=O)[C@H](Cc3ccc(O)cc3)NC2=O)c1 [Compound 2574] ({CH2CO}-[Dap]Y(Carboxymethyl)D[Phe(3-Me)]Y[Bip]V[Orn][dL][Dab][Cha]Y[Orn]C[Dab][AEEA][Aun]-OH; thioether N-14)
0.0102 µM	Cc1cccc(C[C@@H]2NC(=O)[C@H](CC(=O)O)NC(=O)[C@H](Cc3ccc(OCC(=O)O)cc3)NC(=O)[C@H](CN)NC(=O)CSC[C@@H](C(=O)N[C@@H](CCN)C(=O)NCCOCCOCC(=O)NCCCCCCCCCCC(=O)O)NC(=O)[C@H](C(C)O)NC(=O)[C@H](C(C)C)NC(=O)[C@H](CC3CCCCC3)NC(=O)[C@H](CCN)NC(=O)[C@@H](CC(C)C)NC(=O)[C@H](CCCN)NC(=O)[C@H](Cc3ccc(O)cc3)NC(=O)[C@H](Cc3ccc(-c4ccccc4)cc3)NC(=O)[C@H](Cc3ccc(O)cc3)NC2=O)c1 (stereo partly drawn) [Compound 2575] ({CH2CO}-[Dap]Y(Carboxymethyl)D[Phe(3-Me)]Y[Bip]Y[Orn][dL][Dab][Cha]V[Thr(3ξ)]C[Dab][AEEA][Aun]-OH; thioether N-14)
0.0104 µM	Cc1cccc(C[C@@H]2NC(=O)[C@H](CC(=O)O)NC(=O)[C@H](Cc3ccc(OCC(=O)O)cc3)NC(=O)[C@H](CN)NC(=O)CSC[C@@H](C(=O)N[C@@H](CCN)C(=O)NCCOCCOCC(=O)NCCCCCCCCCCC(=O)O)NC(=O)[C@H](CCCN)NC(=O)[C@H](C(C)C)NC(=O)[C@H](CC3CCCCC3)NC(=O)[C@H](CCN)NC(=O)[C@@H](CC(C)C)NC(=O)[C@H](CCCN)NC(=O)[C@H](Cc3ccc(O)cc3)NC(=O)[C@H](Cc3ccc(-c4ccccc4)cc3)NC(=O)[C@H](Cc3ccc(O)cc3)NC2=O)c1 [Compound 2576] ({CH2CO}-[Dap]Y(Carboxymethyl)D[Phe(3-Me)]Y[Bip]Y[Orn][dL][Dab][Cha]V[Orn]C[Dab][AEEA][Aun]-OH; thioether N-14)
0.034 µM	Cc1cccc(C[C@@H]2NC(=O)[C@H](CC(=O)O)NC(=O)[C@H](Cc3ccc(OCC(=O)O)cc3)NC(=O)[C@H](CN)NC(=O)CSC[C@@H](C(=O)N[C@@H](CCN)C(=O)NCCOCCOCC(=O)NCCCCCCCCCCC(=O)O)NC(=O)[C@H](C(C)O)NC(=O)[C@H](Cc3ccc(O)cc3)NC(=O)[C@H](CC3CCCCC3)NC(=O)[C@H](CCN)NC(=O)[C@@H](CC(C)C)NC(=O)[C@H](CCCN)NC(=O)[C@H](Cc3ccc(O)cc3)NC(=O)[C@H](Cc3ccc(-c4ccccc4)cc3)NC(=O)[C@H](C(C)C)NC2=O)c1 (stereo partly drawn) [Compound 2577] ({CH2CO}-[Dap]Y(Carboxymethyl)D[Phe(3-Me)]V[Bip]Y[Orn][dL][Dab][Cha]Y[Thr(3ξ)]C[Dab][AEEA][Aun]-OH; thioether N-14)
0.0107 µM	Cc1cccc(C[C@@H]2NC(=O)[C@H](CC(=O)O)NC(=O)[C@H](Cc3ccc(OCC(=O)O)cc3)NC(=O)[C@H](CN)NC(=O)CSC[C@@H](C(=O)N[C@@H](CCN)C(=O)NCCOCCOCC(=O)NCCCCCCCCCCC(=O)O)NC(=O)[C@H](CCCN)NC(=O)[C@H](Cc3ccc(O)cc3)NC(=O)[C@H](CC3CCCCC3)NC(=O)[C@H](CCN)NC(=O)[C@@H](CC(C)C)NC(=O)[C@H](CCCN)NC(=O)[C@H](Cc3ccc(O)cc3)NC(=O)[C@H](Cc3ccc(-c4ccccc4)cc3)NC(=O)[C@H](C(C)C)NC2=O)c1 [Compound 2578] ({CH2CO}-[Dap]Y(Carboxymethyl)D[Phe(3-Me)]V[Bip]Y[Orn][dL][Dab][Cha]Y[Orn]C[Dab][AEEA][Aun]-OH; thioether N-14)
0.0118 µM	Cc1cccc(C[C@@H]2NC(=O)[C@H](CC(=O)O)NC(=O)[C@H](Cc3ccc(OCC(=O)O)cc3)NC(=O)[C@H](CN)NC(=O)CSC[C@@H](C(=O)N[C@@H](CCN)C(=O)NCCOCCOCC(=O)NCCCCCCCCCCC(=O)O)NC(=O)[C@H](C(C)O)NC(=O)[C@H](C(C)C)NC(=O)[C@H](CC3CCCCC3)NC(=O)[C@H](CCN)NC(=O)[C@@H](CC(C)C)NC(=O)[C@H](CCCN)NC(=O)[C@H](CCCNC(N)=O)NC(=O)[C@H](Cc3ccc(-c4ccccc4)cc3)NC(=O)[C@H](Cc3ccc(O)cc3)NC2=O)c1 (stereo partly drawn) [Compound 2579] ({CH2CO}-[Dap]Y(Carboxymethyl)D[Phe(3-Me)]Y[Bip][Cit][Orn][dL][Dab][Cha]V[Thr(3ξ)]C[Dab][AEEA][Aun]-OH; thioether N-14)
